ChEMBL document CHEMBL1250526, “Delphinidin, a dietary anthocyanidin in berry fruits, inhibits human glyoxalase I” (Bioorg Med Chem, 2010)
Activity calls are given as the source filed them. The rule behind the calls is not given here.

Tests used:
HL-60 [1] = assay: Antiproliferative activity against human HL60 cells at up to 100 uM after 48 hrs by MTS assay; assay type: functional, cell-based
Lactoylglutathione lyase = Lactoylglutathione lyase (Homo sapiens, UniProt Q04760); assay: Inhibition of human recombinant glyoxalase 1 assessed as S-D-lactoylglutathione after 15 mins by spectrophotometric analysis
HL-60 [2] = assay: Antiproliferative activity against human HL60 cells after 24 hrs by MTS assay; assay type: functional, cell-based; conditions: HL-60, 24 h
HL-60 [3] = assay: Induction of apoptosis in human HL60 cells assessed as nucleosomal DNA fragmentation after 48 hrs using ethidium bromide staining by agarose gel electrophoresis; assay type: functional, cell-based
HL-60 [4] = assay: Induction of apoptosis in human HL60 cells assessed as nucleosomal DNA fragmentation at up to 100 uM using ethidium bromide staining by agarose gel electrophoresis; assay type: functional, cell-based; conditions: TDE = time-dependent effect
HL-60 [5] = assay: Antiproliferative activity against human HL60 cells after 48 hrs by MTS assay; assay type: functional, cell-based
HL-60 [6] = assay: Antiproliferative activity against human HL60 cells at up to 100 uM by MTS assay; assay type: functional, cell-based; conditions: TDE = time-dependent effect

Sequence of Lactoylglutathione lyase (Q04760 whole entry): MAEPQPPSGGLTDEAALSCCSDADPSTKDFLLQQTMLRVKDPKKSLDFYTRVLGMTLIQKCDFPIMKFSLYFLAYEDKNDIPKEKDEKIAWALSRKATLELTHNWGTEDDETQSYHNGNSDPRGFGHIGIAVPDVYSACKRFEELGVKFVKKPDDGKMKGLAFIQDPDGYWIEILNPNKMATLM

Row | Compound | Activity (HL-60 [1]) | IC50 (Lactoylglutathione lyase) [µM] | IC50 (HL-60 [2]) [µM] | Activity (HL-60 [3]) | Activity (HL-60 [4]) | Activity (HL-60 [5]) | IC50 (HL-60 [5]; HL-60, 48 h) [µM] | Activity (HL-60 [6])
1 | Oc1cc(O)c2cc(O)c(-c3ccc(O)c(O)c3)[o+]c2c1 [CYANIDIN CHLORIDE] | Active | 11.7 | – | – | – | – | – | –
2 | Oc1cc(O)c2cc(O)c(-c3cc(O)c(O)c(O)c3)[o+]c2c1 [DELPHINIDIN CHLORIDE] | – | 1.9 | 80 | Dose-dependent effect | tde | Dose-dependent effect | 40 | tde
3 | Oc1ccc(-c2[o+]c3cc(O)cc(O)c3cc2O)cc1 [PELARGONIDIN CHLORIDE] | Active | 16.4 | – | – | – | – | – | –
